Assay results: publication PMC4754833, “Rilpivirine analogs potently inhibit drug-resistant HIV-1 mutants” (Retrovirology, 2016)
Where two headings read alike, the source gives them in different places.

Experiments:
[1] = tested on: HIV-1 RT mutant V106A/F227L/L234I; assay: single round infection assay, V106A/F227L/L234I; format: cell-based; settings: for IC50: ± SD, n=4
Procedure: (§1) The human osteosarcoma cell line, HOS, was obtained from Dr. Richard Schwartz (Michigan State University, East Lansing, MI) and grown in Dulbecco’s modified Eagle’s medium (Invitrogen, Carlsbad, CA) supplemented with 5 % (v/v) fetal bovine serum, 5 % newborn calf serum, and penicillin (50 units/ml) plus streptomycin (50 µg/ml; Quality Biological, Gaithersburg, MD). Virion production and single-round infectivity assays were used to determine antiviral activity (IC50 values) of the compounds as previously described.
(§2) pNLNgoMIVR-ΔEnv.LUC has been described previously. The RT open reading frame was removed from pNLNgoMIVR-ΔEnv.LUC (digestion with SpeI and SalI) and inserted between the SpeI and SalI sites of pBluescript II KS+. Using that construct as the wild-type template, we prepared the following HIV-1 RT mutants using the QuikChange II XL (Stratagene, La Jolla, CA) site-directed mutagenesis protocol kit: L100I, K103N, Y181C, Y188L, H221Y, K103N/Y181C, G190A, G190S, M230L, P236L, L100I/K103N, K103N/P225H, V106A/G190A/F227L, V106A, L234I, V106A/F227L, V106A/L234I, V106A/F227L/L234I, E40K, D67E, K101E, V111A, E138K, M184I, M184V, K101E/M184I, K101E/M184V, E138K/M184I, E138K/M184V, K101P, Y181I, and K101P/V179I. The following sense oligonucleotides were used with matching cognate antisense oligonucleotides (not shown) (Integrated DNA Technologies, Coralville, IA) in the mutagenesis: L100I, 5′-[…]-3′; L100I 2-103, 5′-[…]-3′; K103N, 5′-[…]-3′; Y181C, 5′-[…]-3′; Y188L, 5′-[…]-3′; H221Y, 5′-[…]-3′; G190A, 5′-[…]-3′; G190S, 5′-[…]-3′; P225H, 5′-[…]-3′; F227, 5′-[…]-3′; M230L, 5′-[…]-3′; P236L, 5′-[…]-3′; V106A, 5′-[…]-3′; L234I, 5′-[…]-3′; E40K, 5′-[…]-3′; D67E, 5′-[…]-3′; K101E, 5′-[…]-3′; V111A, 5′-[…]-3′; E138K, 5′-[…]-3′; M184I, 5′-[…]-3′; M184V, 5′-[…]-3′; K101P, 5′-[…]-3′; Y181I, 5′-[…]-3′; K101P/V179I, 5′-[…]-3′. The double mutants K103N/Y181C, K103N/P225H, and L100I/K103N were made using the previously generated K103N mutant and the appropriate oligonucleotides to add the second mutation, Y181C, P225, and L100I respectively. The double mutants V106A/F227L and V106A/L234I were prepared using the previously generated V106A mutant and the appropriate oligonucleotides to add the second mutation, F227L and L234I, respectively. The double mutants K101E/M184I and K101E/M184V were constructed using the previously generated K101E mutant and the appropriate oligonucleotides to add the second mutation, M184I and M184V, respectively. The double mutants E138K/M184I and E138K/M184V were constructed using the previously generated E138K mutant and the appropriate oligonucleotides for the second mutation, M184I and M184V, respectively. The triple mutant V106A/F227L/L234I was made using the previously generated V106A/F227L double mutant and the appropriate oligonucleotides for the third mutation, L234I. The triple mutant V106A/G190A/F227L was constructed in a series of steps using the previously generated V106A mutant and the appropriate oligonucleotides for the second mutation, G190A, to generate the double mutant V106A/G190A, and then the triple mutant was made using double mutant V106A/G190A and oligonucleotides for the third mutation, F227L. The DNA sequence of each construct was verified by DNA sequence determination. The sequences encoding the mutant RTs were then subcloned into pNLNgoMIVR-ΔEnv.LUC (between the KpnI and SalI sites) to produce the mutant HIV-1 constructs. These DNA sequences were also checked independently by DNA sequence determination.
(§3) 10.1186/s12977-016-0244-2 The IC50 values (nM) of RPV and the RPV analogs were determined against the NNRTI resistant mutants were measured by using a single round infection assay, n = 4. The concentrations (nM) are measured by reductions in luciferase reporter activity followed by the standard deviations. […]

[2] = tested on: HIV-1 RT mutant K103N/Y181C; set-up: method as in PMID 23217210; settings: previous study; cited from earlier work
[3] = tested on: HIV-1 RT mutant E138K/M184I; assay: single round infection assay, E138K/M184I; format: cell-based; settings: E138K/M184I vs WT
Procedure: as §1, §2, §3

HIV-1 RT mutant E138K = assay: single round infection assay, E138K; format: cell-based; settings: E138K vs WT
Procedure: as §1, §2, §3

HIV-1 RT mutant K103N = tested on: HIV-1 RT mutant K103N; set-up: method as in PMID 23217210; settings: previous study; cited from earlier work
[4] = tested on: HIV-1 RT mutant V106A/F227L; assay: single round infection assay, V106A/F227L; format: cell-based; settings: V106A/F227L vs WT
Procedure: as §1, §2, §3

HIV-1 RT mutant G190S = assay: single round infection assay, G190S; format: cell-based; settings: Human immunodeficiency virus 1
Procedure: as §1, §2, §3

[5] = tested on: HIV-1 RT mutant K103N/P225H; assay: single round infection assay, K103N/P225H; format: cell-based; settings: Human immunodeficiency virus 1
Procedure: as §1, §2, §3

HIV-1 RT mutant Y181C = tested on: HIV-1 RT mutant Y181C; set-up: method as in PMID 23217210; settings: previous study; cited from earlier work
[6] = tested on: HIV-1 RT mutant K101P/V179I; assay: single round infection assay, K101P/V179I; format: cell-based
Procedure: as §1, §2, §3

HIV-1 RT mutant G190A = assay: single round infection assay, G190A; format: cell-based; settings: Human immunodeficiency virus 1
Procedure: as §1, §2, §3

HIV-1 RT mutant D67E = assay: single round infection assay, D67E; format: cell-based; settings: D67E vs WT
Procedure: as §1, §2, §3

HIV-1 RT mutant H221Y = tested on: HIV-1 RT mutant H221Y; set-up: method as in PMID 23217210; settings: previous study; cited from earlier work
[7] = tested on: HIV-1 RT mutant V106A/G190A/F227L; assay: single round infection assay, V106A/G190A/F227L; format: cell-based
Procedure: as §1, §2, §3

HIV-1 RT mutant L100I = tested on: HIV-1 RT mutant L100I; set-up: method as in PMID 23217210; settings: previous study; cited from earlier work
HIV-1 RT mutant P236L = assay: single round infection assay, P236L; format: cell-based
Procedure: as §1, §2, §3

WT HIV-1 [8] = settings: previous study; cited from earlier work
WT HIV-1 [9] = assay: single round infection luciferase assay, WT HIV-1; format: cell-based; settings: Human immunodeficiency virus 1
Procedure: as §1, §2, §3

HIV-1 RT mutant Y181I = assay: single round infection assay, Y181I; format: cell-based
Procedure: as §1, §2, §3

HIV-1 RT mutant K101P = assay: single round infection assay, K101P; format: cell-based
Procedure: as §1, §2, §3

HIV-1 RT mutant M230L = assay: single round infection assay, M230L; format: cell-based; settings: M230L vs WT
Procedure: as §1, §2, §3

In the case of `Cc1cc(/C=C/C#N)cc(C)c1Nc1nc(Nc2ccc(C#N)cc2)nc2[nH]cnc12` [compound 11], the IC50 ([1]; Human immunodeficiency virus 1, V106A/F227L/L234I (selected by DOR)) is reported as less than 5 nM, the IC50 ([1]; V106A/F227L/L234I (selected by DOR)) is reported as 3.4 ± 1.1 nM and the “fold-change of IC50 of the mutant relative to WT” value ([1]; V106A/F227L/L234I vs WT) is reported as 6. The IC50 [2] was less than 5 nM, the “fold-change of IC50 of the mutant relative to WT” value [3] was less than 2 and the “fold-change of IC50 of the mutant relative to WT” value (HIV-1 RT mutant E138K) was less than 2. The IC50 (HIV-1 RT mutant K103N) was less than 7 nM, the “fold-change of IC50 of the mutant relative to WT” value [4] was less than 2 and the IC50 (HIV-1 RT mutant G190S) was 0.2 ± 0.07 nM. The IC50 [5] was 0.22 ± 0.06 nM, the IC50 (HIV-1 RT mutant Y181C) was less than 7 nM and the IC50 ([6]; Human immunodeficiency virus 1) was 2.5 nM. For the same compound, the “fold-change of IC50 of the mutant relative to WT” value ([6]; K101P/V179I vs WT) was 4, the IC50 (HIV-1 RT mutant G190A) was 0.45 ± 0.01 nM and the “fold-change of IC50 of the mutant relative to WT” value (HIV-1 RT mutant D67E) was less than 2. The IC50 (HIV-1 RT mutant H221Y) was less than 7 nM, the IC50 ([7]; Human immunodeficiency virus 1) was 0.98 ± 0.17 nM and the “fold-change of IC50 of the mutant relative to WT” value ([7]; V106A/G190A/F227L vs WT) was less than 2. For the same compound, the IC50 (HIV-1 RT mutant L100I) was less than 7 nM, the IC50 (HIV-1 RT mutant P236L; Human immunodeficiency virus 1) was 0.87 ± 0.2 nM and the “fold-change of IC50 of the mutant relative to WT” value (HIV-1 RT mutant P236L; P236L vs WT) was less than 2. The IC50 (WT HIV-1 [8]) was less than 7 nM, the IC50 (WT HIV-1 [9]) was 0.56 ± 0.08 nM and the IC50 (HIV-1 RT mutant Y181I; Human immunodeficiency virus 1) was 2.4 nM. For the same compound, the “fold-change of IC50 of the mutant relative to WT” value (HIV-1 RT mutant Y181I; Y181I vs WT) was 4, the IC50 (HIV-1 RT mutant K101P; Human immunodeficiency virus 1) was 2.4 nM and the “fold-change of IC50 of the mutant relative to WT” value (HIV-1 RT mutant K101P; K101P vs WT) was 4. The “fold-change of IC50 of the mutant relative to WT” value (HIV-1 RT mutant M230L) was 3.
